How the values were obtained:
KRas G12D [1] = biological target: T1, KRas G12D (Homo sapiens, UniProt P01116, G12D); assay: KRas G12D Surface Plasmon Resonance (SPR) Binding Assay; conditions: Biacore T200, biotinylated Avidin-tagged KRAS protein on SA chip, 20 C, 1:1 binding model
Protocol: This Example illustrates that exemplary compounds of the present invention bind to KRas G12D as measured by surface plasmon resonance (SPR). Briefly, 1 L of 1.05×HBS-Mg buffer (262.5 mM BioUltra Hepes, pH 7.5, 157.5 mM NaCl, 105 mM MgCl2, 0.525 mM TCEP, […] Brij-35) was prepared and filter sterilized using a 0.22 μm bottle top filter. Approximately 50 mL of 1.05×HBS-Mg buffer was removed and saved for future dilutions. A 50 mL aliquot of DMSO (Sigma Aldrich DMSO Lot. #SHBK2079) was added and continued to stir for 10 minutes, creating the final 1.0×HBS-Mg buffer (250 mM BioUltra Hepes pH 7.5, 150 mM NaCl, 100 mM MgCl2, 0.5 mM TCEP, 0.03% Brij-35). Biacore T200 instrument was primed using 1.0×HBS-Mg buffer before docking a GE Streptavidin (SA) chip and then primed two additional times prior to beginning the immobilization step. All immobilized protein mixtures were created using 3-5 mg/mL Biotinylated Avidin-tagged KRAS protein using the following immobilization settings: SA chip type, 1 flow cells per cycle, 720 second contact time, and 5 μL/min flow rate. Normalization of the detector was also performed during the immobilization step using the GE BiaNormalize solution. All compounds were diluted to 10 mM in 100% DMSO prior to being diluted 20× in 1.05× buffer. Another 10× dilution was created using 1.0× buffer prior to performing a series of 3× dilutions to create a compound concentration curve using the following assay settings: 20 C analysis temperature, General Settings=10 Hz data collection rate and multi-detection; Assay Steps=all set to LMW kinetics; Cycle Types=LMW kinetics (60s contact time, 120s dissociation time, 100 μL/min flow rate, extra wash after injection with 50% DMSO, flow path 1,2,3,4); Flow path detection=2-1, 4-3). Data evaluation was performed using the Biacore T200 Evaluation software and data fit to 1:1 binding model.
Target sequence in this assay (P01116 1-188 isoform P01116-2 G12D): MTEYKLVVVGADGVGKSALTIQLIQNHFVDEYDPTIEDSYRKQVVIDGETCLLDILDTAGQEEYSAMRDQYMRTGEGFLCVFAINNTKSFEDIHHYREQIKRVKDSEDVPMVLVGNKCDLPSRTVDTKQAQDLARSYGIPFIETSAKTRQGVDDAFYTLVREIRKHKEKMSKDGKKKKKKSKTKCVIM

KRas G12D [2] = biological target: T1, KRas G12D; assay: KRas G12D Binding Assay (TR-FRET displacement of labeled tracer); parameters: corresponding to amino acids 1:169, produced at Array BioPharma; biotin (protein is biotinylated); conditions: TR-FRET displacement of Cy5 labelled tracer, biotinylated GDP-loaded KRAS G12D (aa 1:169), 60 minute incubation at 22° C.
Method in brief: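 Biotinylated GDP-loaded human KRAS G12D (aa 1–169) incubated with Cy5 tracer, Eu-streptavidin and compound (2% DMSO final) in 50 mM HEPES pH 7.5, 5 mM MgCl2, 0.005% Tween-20, 1 mM DTT, 60 min at 22 °C. TR-FRET ratio converted to percent of control; IC50 at 50 POC from 4-parameter logistic fit.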
Target sequence in this assay (P01116 1-169 isoform P01116-2 G12D): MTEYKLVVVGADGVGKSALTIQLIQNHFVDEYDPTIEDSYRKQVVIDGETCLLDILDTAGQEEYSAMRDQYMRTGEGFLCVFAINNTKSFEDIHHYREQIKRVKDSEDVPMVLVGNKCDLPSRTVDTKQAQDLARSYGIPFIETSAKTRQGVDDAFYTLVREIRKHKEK

SMILES	Kd (KRas G12D [1])	IC50 (KRas G12D [2])
CN1CCC[C@H]1COc1nc2c(c(N3C[C@H]4CC[C@@H](C3)N4)n1)CCN(c1cccc3c1CCCC3)C2 [Example 71, 4-((1R,5S)-3,8-diazabicyclo[3.2.1]octan-3-yl)-2-(((S)-1-methylpyrrolidin-2-yl)methoxy)-7-(5,6,7,8-tetrahydronaphthalen-1-yl)-5,6,7,8-tetrahydropyrido[3,4-d]pyrimidine]	4.22 µM	1.78 µM
CN1CCC[C@H]1COc1nc2c(c(N3C[C@H]4CC[C@@H](C3)N4)n1)CC(=O)N(Cc1ccccc1)C2 [Example 53, 7-benzyl-4-((1R,5S)-3,8-diazabicyclo[3.2.1]octan-3-yl)-2-(((S)-1-methylpyrrolidin-2-yl)methoxy)-7,8-dihydropyrido[3,4-d]pyrimidin-6(5H)-one]	> 1000 µM	5.26 µM
COc1nc2c(c(N3C[C@H]4CC[C@@H](C3)N4)n1)CCN(c1cccc3cccc(C)c13)C2 [Example 22, 4-((1R,5S)-3,8-diazabicyclo[3.2.1]octan-3-yl)-2-methoxy-7-(8-methylnaphthalen-1-yl)-5,6,7,8-tetrahydropyrido[3,4-d]pyrimidine]	302 µM	7.86 µM
Cc1ccc2[nH]ncc2c1N1CCc2c(nc(OC[C@@H]3CCCN3C)nc2N2C[C@H]3CC[C@@H](C2)N3)C1 [Example 3, 4-((1R,5S)-3,8-diazabicyclo[3.2.1]octan-3-yl)-7-(5-methyl-1H-indazol-4-yl)-2-(((S)-1-methylpyrrolidin-2-yl)methoxy)-5,6,7,8-tetrahydropyrido[3,4-d]pyrimidine]	6.37 µM	1.32 µM
CN1CCC[C@H]1COc1nc2c(c(N3C[C@H]4CC[C@@H](C3)N4)n1)CCN(c1cncc3ccccc13)C2 [Example 57, 4-((1R,5S)-3,8-diazabicyclo[3.2.1]octan-3-yl)-7-(isoquinolin-4-yl)-2-(((S)-1-methylpyrrolidin-2-yl)methoxy)-5,6,7,8-tetrahydropyrido[3,4-d]pyrimidine]	98.5 µM	> 10 µM
COC1CC(N2CCc3c(nc(OC[C@@H]4CCCN4C)nc3N3C[C@H]4CC[C@@H](C3)N4)C2)c2ccccc21 (stereo partly drawn) [Example 36, 4-((1R,5S)-3,8-diazabicyclo[3.2.1]octan-3-yl)-7-(3-methoxy-2,3-dihydro-1H-inden-1-yl)-2-(((S)-1-methylpyrrolidin-2-yl)methoxy)-5,6,7,8-tetrahydropyrido[3,4-d]pyrimidine]	24.3 µM	> 10 µM
CN1CCC[C@H]1COc1nc2c(c(N3C[C@H]4CC[C@@H](C3)N4)n1)CCN(c1cccc3ccccc13)C2 [Example 70, 4-((1R,5S)-3,8-diazabicyclo[3.2.1]octan-3-yl)-2-(((S)-1-methylpyrrolidin-2-yl)methoxy)-7-(naphthalen-1-yl)-5,6,7,8-tetrahydropyrido[3,4-d]pyrimidine]	2.1 µM	1.12 µM
Cc1c(O)cc(N2CCc3c(nc(OC[C@@H]4CCCN4C)nc3N3C[C@H]4CC[C@@H](C3)N4)C2)c2ccccc12 [Example 69, 4-(4-((1R,5S)-3,8-diazabicyclo[3.2.1]octan-3-yl)-2-(((S)-1-methylpyrrolidin-2-yl)methoxy)-5,8-dihydropyrido[3,4-d]pyrimidin-7(6H)-yl)-1-methylnaphthalen-2-ol]	38.4 µM	> 10 µM
CN1CCC[C@H]1COc1nc2c(c(N3C[C@H]4CC[C@@H](C3)N4)n1)CCN(C1CC(O)c3ccccc31)C2 (stereo partly drawn) [Example 35, 3-(4-((1R,5S)-3,8-diazabicyclo[3.2.1]octan-3-yl)-2-(((S)-1-methylpyrrolidin-2-yl)methoxy)-5,8-dihydropyrido[3,4-d]pyrimidin-7(6H)-yl)-2,3-dihydro-1H-inden-1-ol]	570 µM	> 10 µM
CN1CCC[C@H]1COc1nc2c(c(N3C[C@H]4CC[C@@H](C3)N4)n1)CCN(c1nc(N)nc3ccccc13)C2 [Example 59, 4-(4-((1R,5S)-3,8-diazabicyclo[3.2.1]octan-3-yl)-2-(((S)-1-methylpyrrolidin-2-yl)methoxy)-5,8-dihydropyrido[3,4-d]pyrimidin-7(6H)-yl)quinazolin-2-amine]	598 µM	7.5 µM

The remaining lines, values ahead:

Kd (KRas G12D [1])	IC50 (KRas G12D [2])	SMILES
19.9 µM	6.57 µM	CN1CCC[C@H]1COc1nc2c(c(N3C[C@H]4CC[C@@H](C3)N4)n1)CCN(c1cccc3cccc(CCCC#N)c13)C2 [Example 83, 4-(8-(4-((1R,5S)-3,8-diazabicyclo[3.2.1]octan-3-yl)-2-(((S)-1-methylpyrrolidin-2-yl)methoxy)-5,8-dihydropyrido[3,4-d]pyrimidin-7(6H)-yl)naphthalen-1-yl)butanenitrile]
1.86 µM	0.486 µM	CN1CCC[C@H]1COc1nc2c(c(N3C[C@H]4CC[C@@H](C3)N4)n1)CCN(c1cccc3cccc(CCCO)c13)C2 [Example 79, 3-(8-(4-((1R,5S)-3,8-diazabicyclo[3.2.1]octan-3-yl)-2-(((S)-1-methylpyrrolidin-2-yl)methoxy)-5,8-dihydropyrido[3,4-d]pyrimidin-7(6H)-yl)naphthalen-1-yl)propan-1-ol]
33.2 µM	2.9 µM	O[C@@H]1C[C@@H]2CN(c3nc(OCCC(F)(F)F)nc4c3CCN(c3cccc5cccc(Cl)c35)C4)C[C@H]1N2 [Example 86, (1R,5R,6R)-3-(7-(8-chloronaphthalen-1-yl)-2-(3,3,3-trifluoropropoxy)-5,6,7,8-tetrahydropyrido[3,4-d]pyrimidin-4-yl)-3,8-diazabicyclo[3.2.1]octan-6-ol]
264 µM	> 10 µM	CN1CCC[C@H]1COc1nc2c(c(N3C[C@H]4CC[C@@H](C3)N4)n1)CCN(c1c(O)cccc1F)C2 [Example 77, 2-(4-((1R,5S)-3,8-diazabicyclo[3.2.1]octan-3-yl)-2-(((S)-1-methylpyrrolidin-2-yl)methoxy)-5,8-dihydropyrido[3,4-d]pyrimidin-7(6H)-yl)-3-fluorophenol]
0.149 µM	0.061 µM	CC1CCCc2cccc(N3CCc4c(nc(OC[C@@H]5CCCN5C)nc4N4C[C@H]5CC[C@@H](C4)N5)C3)c21 (stereo partly drawn) [Example 82, 4-((1R,5S)-3,8-diazabicyclo[3.2.1]octan-3-yl)-7-(8-methyl-5,6,7,8-tetrahydronaphthalen-1-yl)-2-(((S)-1-methylpyrrolidin-2-yl)methoxy)-5,6,7,8-tetrahydropyrido[3,4-d]pyrimidine]
0.938 µM	1.46 µM	CN1CCC[C@H]1COc1nc2c(c(N3C[C@H]4C/C(=C/C#N)[C@@H](C3)N4)n1)CCN(c1cccc3cccc(Cl)c13)C2 (single isomer, unassigned) [Example 90]
41.6 µM	> 10 µM	CN1CCC[C@H]1COc1nc2c(c(N3C[C@H]4CC[C@@H](C3)N4)n1)CCN(c1ccc(Br)c3cccc(Cl)c13)C2 [Example 74, 4-((1R,5S)-3,8-diazabicyclo[3.2.1]octan-3-yl)-7-(4-bromo-8-chloronaphthalen-1-yl)-2-(((S)-1-methylpyrrolidin-2-yl)methoxy)-5,6,7,8-tetrahydropyrido[3,4-d]pyrimidine]
3.23 µM	3.17 µM	Cc1ccc2cccc(N3CCc4c(nc(OC[C@@H]5CCCN5C)nc4N4C[C@H]5CC[C@@H](C4)N5)C3)c2c1 [Example 110, 4-((1R,5S)-3,8-diazabicyclo[3.2.1]octan-3-yl)-7-(7-methylnaphthalen-1-yl)-2-(((S)-1-methylpyrrolidin-2-yl)methoxy)-5,6,7,8-tetrahydropyrido[3,4-d]pyrimidine]
51.4 µM	> 10 µM	CN1CCC[C@H]1COc1nc2c(c(N3C[C@H]4CC[C@@H](C3)N4)n1)CCN(c1c(O)ccc3ccccc13)C2 [Example 78, 1-(4-((1R,5S)-3,8-diazabicyclo[3.2.1]octan-3-yl)-2-(((S)-1-methylpyrrolidin-2-yl)methoxy)-5,8-dihydropyrido[3,4-d]pyrimidin-7(6H)-yl)naphthalen-2-ol]
27.1 µM	> 10 µM	CN1CCC[C@H]1COc1nc2c(c(N3C[C@H]4C/C(=C\C#N)[C@@H](C3)N4)n1)CCN(c1cccc3cccc(Cl)c13)C2 (single isomer, unassigned) [Example 89]
2.1 µM	1.09 µM	C[C@H]1CC2CN(c3nc(OC[C@@H]4CCCN4C)nc4c3CCN(c3cccc5cccc(Cl)c35)C4)C[C@H]1N2 (single isomer, unassigned) [Example 88]
